Assay results published in patent US10537610B1, “Peptide for inhibition of cancer” (priority 2018, dated 2020).
Non-standard residues stand in square brackets, D forms with d. Residues, ends and D or L forms follow the SMILES beside them.

Legend:
Format in all cases: cell-based, human
[1] = tested on: MCF-10A cells on HMEC-1 cells; assay: Adhesion of non-tumorigenic MCF-10A cells to endothelial monolayer under static conditions; conditions: P4D 500 μM; TNF/IFN-treated HMEC-1
Description: The peptides were synthesized and purified by LifeTein, LLC (Somerset, N.J., USA) with the purity of not less than 95% using PeptideSyn™ technology that incorporates solid phase fluorenylmethyloxycarbonyl (Fmoc) chemistry. The cells were treated with the peptide P4D for 0, 1, 5, or 24 hours at a concentration of 500 μM. The cells treated with the Scrambled peptide P4D (Scr; 500 μM; 0, 1, 5, or 24 hours incubation time) were used as a negative control. In order to provide the positive control of the junctions tightening for impedance-based measurements of endothelial permeability, the cells were incubated with the potent activator of TJ assembly, forskolin (FSK; BioShop, Burlington, ON, Canada), for 24 hours at a concentration of 10 μM.
Adhesion of human breast cancer (MCF-7, MDA-MB-231) or non-tumorigenic (MCF-10A) human breast cells to HMEC-1 cells was performed in 24-well plates. HMEC-1 cells were seeded to the bottom of the fibronectin-coated wells 2 days before the assay to form the monolayer and subjected to a suitable treatment. Breast cancer or non-tumorigenic cells were starved overnight and on the day of the assay were labeled with CellTracker Green CMFDA Dye for 30 minutes. […] The adherent cells were lysed by 2% SDS and the fluorescence was measured using the Wallac 1420 VICTOR2 Multilabel Counter (PerkinElmer) at 492 nm of excitation and 517 nm of emission wavelengths.

JAM-A mRNA = assay: RT-PCR of JAM-A mRNA in HMEC-1 cells; conditions: Tβ4 200 nM or TGF-β1 10 ng/mL
JAM-A = assay: Western blot of JAM-A protein in HMEC-1 cells
Description: The cells were lysed with lysis buffer (1% Triton X-100 and 0.1% SDS in PBS) supplemented with Halt Protease Inhibitor Cocktail (Thermo Scientific, Waltham, Mass., USA). For the equalization between the samples before the semi-quantitative analyses the protein content of lysates was determined with the BCA Protein Assay Kit according to the manufacturer's protocol (Thermo Scientific). Cell lysate aliquots at a protein content of 50 μg per sample were boiled with 5× concentrated loading buffer (final concentrations: 50 mM Tris-HCl, pH 6.8, 8% glycerol, 2% SDS, 5% β-mercaptoethanol, 0.002% bromophenol blue), separated under reducing conditions on 4-20% gradient SDS-PAGE gels (Bio-Rad) and electroblotted (120 min, 200 mA, 4° C.) onto polyvinylidene difluoride (PVDF) membranes (Bio-Rad). The membranes were washed with Tris-buffered saline (TBS) and blocked for 2 hours with TBS containing 5% nonfat dry milk at room temperature. Then, the membranes were incubated overnight at 4° C. with an appropriate amount of primary antibody diluted in TBS containing 0.05% Tween 20 (TBST). The following primary antibodies were used: monoclonal rabbit anti-JAM-A (Abcam, Cambridge, UK) at a dilution of 1:500 and monoclonal mouse anti-GAPDH (R&D Systems, Minneapolis, Minn., USA) at a dilution of 1:1000. The membranes were washed several times with TBST and incubated for 1 hour at room temperature with the corresponding polyclonal anti-rabbit and anti-mouse HRP-conjugated secondary antibodies (Santa Cruz Biotechnology, Dallas, Tex., USA) at a 1:5000 dilution in TBST. Following the subsequent washes with TBST the membranes were further processed for chemiluminescent detection using Westar TiC ECL Substrate (Cyanagen, Bologna, Italy) and the images were documented by ChemiDoc MP Imager (Bio-Rad).

JAM-A (CD321) = assay: Flow cytometry of JAM-A (CD321) on the surface of HMEC-1 cells; conditions: Tβ4 200 nM, TGF-β1 10 ng/ml or TNF-α 10 ng/mL, 24 hours
Description: For the detection of JAM-A surface expression the cells were labeled with FITC anti-human CD321 (F11R) Mouse IgG1 Antibody (BioLegend, San Diego, Calif., USA) or with the FITC Mouse IgG1 Isotype Control Antibody (BioLegend) for the negative control. Labeled cells were washed to remove unbound antibodies, harvested with ice cold EDTA/PBS, fixed with BD CellFix (Becton Dickinson. Franklin Lakes, N.J., USA) and subsequently analyzed by FACS Canto II flow cytometer (Becton Dickinson). Upon excitation at 488 nm with an argon laser the emission of the fluorescence was recorded through selective band pass filter at 517 nm. Data were recorded with DIVA software, version 6.0 (Becton Dickinson) and subsequently analyzed using FCSalyzer software, version 0.9.14-alpha (https://sourceforge.net/projects/fcsalyzer/).

Row | Compound | adhesion of MCF-10A cells to cytokine-treated endothelium [1] | JAM-A expression on mRNA level (JAM-A mRNA) | level of JAM-A protein (JAM-A; Tβ4 200 nM or TGF-β1 10 ng/mL, 24-hours incubation) | action on JAM-A expression over incubation time (JAM-A; Tβ4 200 nM, 0, 2, 5, or 12 hours) | JAM-A (CD321) level on the cell surface (JAM-A (CD321))
1 | CC(C)[C@H](NC(=O)[C@H](CO)NC(=O)[C@H](N)CCCCN)C(=O)N[C@H](C(=O)N[C@H](CCCNC(=N)N)C(=O)N[C@@H](CCC(=O)O)C(=O)N[C@@H](CC(=O)O)C(=O)N[C@H](C(=O)NCC(=O)N[C@H](C(=O)N[C@@H](Cc1ccc(O)cc1)C(=O)N[C@H](C(=O)N[C@@H](CS)C(N)=O)[C@@H](C)O)[C@@H](C)O)[C@@H](C)O)[C@@H](C)O [Peptide P4D, NH2-(dK)-SVT-(dR)-EDTGTYTC-CONH2] (H-[dK]SVT[dR]EDTGTYTC-NH2) | markedly inhibited | – | – | – | –
2 | Thymosin β4 (SDKPDMAEIEKFDKSKLKKTETQEKNPLPSKETIEQEKQAGES; not fully specified; Thymosin beta-4; UniProt P62328 2-44, looked up) [Tβ4] | – | no observed changes of JAM-A expression on mRNA level | evidently reduced the level of JAM-A protein | time-dependent | slightly decreased JAM-A level on the membrane of HMEC-1 cells
